Counter-ions that a name gives are not always drawn.
Tests used:
[1] = test system: 18C-18D duplex; assay: UV melting (thermal denaturation) and ΔTm analysis, 18C-18D duplex; assay type: binding, HIV-1; conditions: for Ka (ΔTm-derived association constant): extrapolated to 25° C.; for enhancement of thermal stability of the duplex (ΔTm): 18C-18D, drug to duplex ratio (rdup) 3.0, FIG. 3b
Experimental: All UV absorbance experiments were conducted on an AVIV Model 14DS Spectrophotometer (Aviv Associates; Lakewood, N.J.) equipped with a thermoelectrically controlled cell holder. A quartz cell with a 1 cm pathlength was used for all the absorbance studies. Absorbance versus temperature profiles were measured at 274 nm with a 6 sec averaging time. The temperature was raised in 0.5° C. increments, and the samples were allowed to equilibrate for 1 min at each temperature setting. In these thermal denaturation studies, 18C-18R and 18C-18D solutions were […] in duplex and contained aminoglycoside at concentrations ranging from 0 to 12 μM. The duplex solutions were preheated for 5 min at 85° C. and then cooled to room temperature prior to addition of the drug. The buffer solutions for the UV melting experiments contained 10 mM PIPES (pH 6.0) and 5 mM MgCl2. For each optically detected transition, the melting temperature (Tm) was determined. Marky, L. A. & Breslauer, K. J. Calculating thermodynamic data for transitions of any molecularity from equilibrium melting curves, Biopolymers 26, 1601-1620 (1987).
The ΔTm method described below was used to derive aminoglycoside-duplex association constants (Ka). Measured aminoglycoside-induced changes in the thermal stability of the host duplexes (FIG. 3) were used to estimate the apparent drug-duplex association constants at Tm (KTm) from the following expression (Crothers, D. M. Statistical thermodynamics of nucleic acid melting transitions with coupled binding equilibria, Biopolymers 10, 2147-2160 (1971)): [formula]
In this expression, TmO and Tm are the melting temperatures of the drug-free and drug-bound duplex, respectively, n is the number of drug molecules bound per duplex, ΔHdup is the enthalpy change for the melting of the duplex in the absence of bound drug, and L is the free drug concentration at Tm (which can be estimated by one half the total drug concentration). Values of ΔHdup for the 18C-18R and 18C-18D duplexes were determined from the shapes of their UV melting profiles using the following relationship (Marky, L. A. & Breslauer, K. J. Calculating thermodynamic data for transitions of any molecularity from equilibrium melting curves, Biopolymers 26, 1601-1620 (1987)): [formula]
where α is the fraction of single strand. This calculation yielded ΔHdup values of 157.8 kcal/mol for the 18C-18R duplex and 130.3 kcal/mol for the 18C-18D duplex. For meaningful comparisons, the calculated apparent binding constants at Tm should be extrapolated to a common reference temperature using the standard relationship: [formula]
where ΔHb is the enthalpy of drug binding.

[2] = test system: 18C-18D duplex (RNase H substrate of HIV-1 RT); assay: RT-induced RNase H cleavage of the 18C-18D duplex (gel assay); assay type: biochemical; conditions: for hierarchy of inhibition of RT-induced cleavage: 18C-18D duplex, aminoglycosides 2.0 mM, FIG. 2b, 2c
Source text: The second model oligonucleotide was a 18mer chimeric duplex (18C-18D). 18C-18D mimics a RNase H substrate during plus-strand strong-stop synthesis (FIG. 2a), which occurs following minus-strand DNA synthesis. Fedoroff, O. Y., et. al., B. R. Structural variation among retroviral primer-DNA junctions: Solution structure of the HIV-1 (−)-strand Okazaki fragment r(gcca)d(CTGC)-d(GCAGTGGC), Biochemistry 35,11070-11080 (1996). For the 18C-18D duplex, RT cleaves the RNA portion of the chimeric strand (18C) opposite the DNA strand (18D) at only a single site (FIGS. 2a, b), in marked contrast to the three cleavage sites observed in the 18C-18Rduplex. This unique cleavage site lies between base positions +1 and +2 (counting from the RNA-DNA junction in the 5′ direction on the cleaved chimeric strand). Furfine, E. S. & Reardon, J. E., Human immunodeficiency virus reverse transcriptase ribonuclease H: Specificity of tRNA(Lys3)-primer excision, Biochemistry 30, 7041-7046 (1991); Smith, J. S. & Roth, M. J. Specificity of human immunodeficiency virus-1 reverse transcriptase-associated ribonuclease H in removal of the minus-strand primer tRNA(Lys3), J. Biol. Chem. 267, 15071-15079 (1992). […] As noted above for the 18C-18R duplex, this hierarchy of cleavage inhibition correlates with the relative binding affinities of the three ligands for the 18C-18D duplex.
Recombinant HIV-1 RT p66 was isolated from Escherichia coli JM 109. Pandey, V. N. et al, Role of methionine 184 of human immunodeficiency virus type-1 reverse transcriptase in the polymerase function and fidelity of DNA synthesis, Biochemistry 35, 2168-2179 (1996). The 18C and 18R oligonucleotides were purchased from Dharmacon Research, Inc. (Lafayette, Colo.). The 18D oligonucleotide was obtained from Integrated DNA Technologies, Inc. (Coralville, Iowa). Neomycin trisulfate trihydrate, the free base of tobramycin, paromomycin sulfate, and kanamycin B sulfate were obtained from Fluka, while kanamycin A monosulfate and ribostamycin sulfate dihydrate were obtained from Sigma.
The RNase H activity of RT was assayed in a 10 μl reaction mixture containing 110 mM PIPES (pH 6.0) and 5 mM MgCl2. Ten pmol of either 18C or 18R were ^32P-labeled at the 5′ end using T4 polynucleotide kinase. For the cleavage experiments, different aminoglycosides were mixed with 0.5 μM of target duplex. A small amount of RT, 0.1 μg, was then added to initiate the cleavage reaction. After incubation at 37° C. for 30 min, the reaction was stopped by addition of 3 M urea containing a mixture of bromophenol blue and xylene cyanol. Denaturation of the 18C-18R duplex required the addition of 5 M urea as well as heating at 95° C. for 5 min prior to gel loading. The cleavage products were resolved in a 10% polyacrylamide gel containing 8 M urea. The gels were subsequently analyzed using a phosphoimager (Molecular Dynamics, Inc.).
To determine the nature of the aminoglycoside-induced inhibition of RT-catalyzed RNase H cleavage, the impact of RT concentration on neomycin-induced inhibition was examined. […] In the presence of 1 mM neomycin, increasing the concentrations of RT overcomes the RNase H inhibitory effect of the drug.

**Q.** With `NC[C@@H]1O[C@H](O[C@H]2[C@@H](O)[C@H](O[C@@H]3[C@@H](O)[C@H](N)C[C@H](N)[C@H]3O[C@H]3O[C@H](CO)[C@@H](O)[C@H](O)[C@H]3N)O[C@@H]2CO)[C@H](N)[C@@H](O)[C@@H]1O` [paromomycin, paromomycin sulfate] as the molecule, how does the “Ka (ΔTm-derived association constant)” value ([1]; 18C-18D duplex) read?
**A.** (1.9 ± 0.8) × 10^5 M^−1

**Q.** And the “enhancement of thermal stability of the duplex (ΔTm)” value [1]?
**A.** 1.1 °C

**Q.** And the “hierarchy of inhibition of RT-induced cleavage” value [2]?
**A.** neomycin>paromomycin>ribostamycin

**Q.** For Neomycin trisulfate trihydrate, which “difference in affinity, neomycin greater than paromomycin” value ([1]; 18C-18D duplex) is on record?
**A.** 9 fold

**Q.** What about the “Ka (ΔTm-derived association constant)” value ([1]; 18C-18D duplex) of the same molecule?
**A.** (1.7 ± 0.3) × 10^6 M^−1

**Q.** What about the “enhancement of thermal stability of the duplex (ΔTm)” value [1] of the same molecule?
**A.** 4.1 °C

**Q.** And the “nature of inhibition of RNase H activity of RT” value ([2]; 1 mM neomycin, increasing RT 0.1-2.7 μg, FIG. 2d)?
**A.** competitive

**Q.** And the “hierarchy of inhibition of RT-induced cleavage” value [2]?
**A.** neomycin>paromomycin>ribostamycin

**Q.** And the “neomycin required for 50% inhibition of RT-induced cleavage, 18C-18D relative to 18C-18R” value ([2]; comparison of FIGS. 1c and 2c)?
**A.** approximately 420 times

Source: patent publication US20030069194A1, “Inhibition of viral replication by targeting RNA-DNA complexes” (priority 2001, published 2003)
